Experimental data: patent publication US7078222B2, “Microorganism for producing riboflavin and method for producing riboflavin using the same” (CJ Corp., priority 2002, dated 2006)

Tests used:
Bacillus subtilis AS5 = test: Evaluation of resistance against DL-β-hydroxynorvaline (growth in DL-β-hydroxynorvaline-containing minimal medium); format: cell-based; set-up: key to growth of strain: +: growth; −: not growth; conditions: for growth of strain: 30° C., 5 days
Description: (§1) In this example, in order to evaluate resistance to DL-β-hydroxynorvaline, the Bacillus subtilis CJKB0002 (KCCM-10446) of Example 1 and the Bacillus subtilis AS5 as the parent strain were cultured in various concentrations of DL-β-hydroxynorvaline-containing media. In detail, respective strains were inoculated onto DL-β-hydroxynorvaline-containing media as shown in Table 1 and cultured at 30° C. for 5 days. In this case, the concentration of DL-β-hydroxynorvaline ranged from 0 to 350 mg/l.

[1] = system: Bacillus subtilis CJKB0002 (KCCM-10446); test: as above; format: cell-based; set-up: key to growth of strain: +: growth; −: not growth; conditions: for growth of strain: 30° C., 5 days
Description: as §1

Question: Which results are given for CCC(O)C(N)C(=O)O (racemic) [DL-β-hydroxynorvaline]?
Answer: growth of strain (Bacillus subtilis AS5; 50 mg/l DL-β-hydroxynorvaline): +; growth of strain (Bacillus subtilis AS5; 100 mg/l DL-β-hydroxynorvaline): −; growth of strain (Bacillus subtilis AS5; 200 mg/l DL-β-hydroxynorvaline): −; growth of strain (Bacillus subtilis AS5; 250 mg/l DL-β-hydroxynorvaline): −; growth of strain (Bacillus subtilis AS5; 300 mg/l DL-β-hydroxynorvaline): −; growth of strain (Bacillus subtilis AS5; 350 mg/l DL-β-hydroxynorvaline): −; concentration of DL-β-hydroxynorvaline in which the strain cannot grow (Bacillus subtilis AS5; parent strain AS5): more than 50 mg/l; growth of strain ([1]; 250 mg/l DL-β-hydroxynorvaline): +; growth of strain ([1]; 300 mg/l DL-β-hydroxynorvaline): −; growth of strain ([1]; 350 mg/l DL-β-hydroxynorvaline): −; enhanced resistance to threonine analogue compared to Bacillus subtilis AS5 ([1]; CJKB0002 versus AS5): five times; concentration of DL-β-hydroxynorvaline in which the strain can grow ([1]; mutant CJKB0002): ≤ 250 mg/L
